Experimental data: the COVID Moonshot data (paper PMC11187573), “Identification of SARS-CoV-2 Mpro inhibitors through deep reinforcement learning for de novo drug design and computational chemistry approaches” (RSC Medicinal Chemistry, 2024)

How the values were obtained:
[1] = target: SARS-CoV-2 Main Protease (SARS-CoV-2) (UniProt P0DTD1)
[2] = target: SARS-CoV-2 Main Protease (SARS-CoV-2) (UniProt P0DTD1); remark: listed apart in the source

| Structure (SMILES) | inhibition ([1]; 50.0 µM) | relative solubility at 20 uM | relative solubility at 100 uM | inhibition ([2]; 20.0 µM) | inhibition ([2]; 50.0 µM) | inhibition ([1]; 20.0 µM) | IC50 [1] | IC50 [2] |
| --- | --- | --- | --- | --- | --- | --- | --- | --- |
| Cn1cnnc1NC(=O)Cc1cccc(Cl)c1F | -13.1% | 0.98 | 0.99 | 5.1% | -1.13% |  |  |  |
| Cc1ccncc1NC(=O)CN(C)S(=O)(=O)c1cccc2cccnc12 | -0.449% | 0.99 | 1 | 43.4% | 17.3% | 0% |  |  |
| Cc1ccncc1NC(=O)CC(C)C(C)C (centres undefined) | 6.99% | 1 | 1 | -5.58% | 29.2% |  |  |  |
| O=C(CCl)N1CCN(Cc2cc(Cl)cc(Cl)c2)CC1 | 100% | 1 | 1 | 76.9% | 69.1% | 100% | 0.475 µM |  |
| Cc1ccncc1NC(=O)Cc1cccc(I)c1 | 64.3% | 1 | 1 | 17.4% | 39.7% |  | 69.1 µM |  |
| Cc1cc(C)cc(CS(=O)(=O)N[C@@]23COC[C@@H]2C3)c1 (stereo in doubt) | 0% | 1 | 1 | 6.03% | -9.38% |  |  |  |
| O=C(NCCc1ccc2c(c1)CCO2)NCc1cccc(N2C(=O)NC3(CCCC3)C2=O)c1 | -30.5% | 0.95 | 0.97 | -29% | -12% |  |  |  |
| Cc1cc(CC(=O)Nc2cnccc2C)[nH]n1 | 4.87% | 1 | 1 | -4.28% | 0.404% |  |  |  |
| O=C(Nc1nncn1C1CC1)C1CCOc2ccc(Cl)cc21 (centres undefined) | 1.9% | 1 | 1 | 46.7% | 54.6% |  |  | 0.598 µM |
| Nc1nnnn1-c1cccc(C(=O)Nc2c(-c3cccnc3)nc3ccccn23)c1 | 18.3% | 0.98 | 0.79 | -2.5% | 2.69% | 11% |  |  |
| Cc1ccc(S(=O)(=O)N2CCN(C(=O)c3cc(=O)[nH]c4ccc(Cl)cc34)CC2)cc1 | 11.5% | 0.97 | 0.88 | -0.869% | -0.533% |  |  |  |
| O=C(c1cc(=O)[nH]c2cc(F)ccc12)N1CCN(S(=O)(=O)c2ccccc2)CC1 | 0% | 0.98 | 0.99 | 12.6% | 30.7% |  |  |  |
| Cc1ccncc1NC(=O)C12CC(CO1)C2 | 0% | 1 | 1 | -0.804% | 12.2% |  |  |  |
| C=CC(=O)N(c1ccc(C(C)(C)C)cc1)C(C(=O)NC(C)(C)C)c1cnc[nH]1 (centres undefined) | 0% | 0.99 | 0.89 | -20.2% | -23.6% | 0% |  |  |
| CC1CC(C)CN(C(=O)c2ccccc2NC(=O)NCc2ccoc2)C1 (centres undefined) | 0% | 1 | 0.99 |  | 8.34% | 0% |  |  |
| Cc1ccncc1NC(=O)C(C)c1cccc(Cl)c1 (centres undefined) |  | 1 | 1 | 58% | 78.7% | 20.4% | 13 µM |  |
| Cc1noc(CC(NC(=O)C(C)Cn2ccnc2)c2ccccc2)n1 (centres undefined) | 0% | 1 | 1 |  | -2.38% | 0% |  |  |
| CC(=O)N1CCN(S(=O)(=O)C2=CC[SH]=C2)CC1 | 3.62% | 0.99 | 1 |  | -20.6% | 0% |  |  |
| Cc1nnn(NC(=O)Cc2cccc(Cl)c2)c1C | 28.7% | 1 | 1.01 | 39.6% | 70.4% |  | 73.4 µM |  |
| Cc1ccncc1NC(=O)C(C)CC1CC1 (centres undefined) | 0% | 1 | 1 | -2.37% | 2.12% |  |  |  |
| Cc1c(C(=O)NC(CC(=O)O)c2cccc(Cl)c2)cnc2ccccc12 (centres undefined) | 8.52% | 1 | 1 | -13% | 6.12% |  |  |  |
| O=C(O)[C@@H](Cc1nc(=O)cc[nH]1)NCc1ccc(Cl)s1 (stereo in doubt) | 2.07% | 1.01 | 1 | 6.7% | 4.85% |  |  |  |
| N#Cc1ccccc1S(=O)(=O)N1CCN(C(=O)c2cc(=O)[nH]c3ccc(F)cc23)CC1 | 29.9% | 0.99 | 0.92 | 14.7% | 29.9% |  |  |  |
| C#Cc1cccc(N(C(=O)C=C)C(C(=O)NC(C)(C)C)c2cccnc2)c1 (centres undefined) |  | 1 | 1.01 | -3.84% | 3.7% | 0% |  |  |
| C=CC(=O)N(c1ccc(C(C)(C)C)cc1)C(C(=O)Nc1ccc(OC)cc1C)c1cccnc1 (centres undefined) | -2.25% | 0.97 | 0.57 |  | 22.4% | 0% |  |  |
| CC(C)c1scnc1NC(=O)C1CCOc2ccc(Cl)cc21 (centres undefined) | 0% | 1 | 0.99 | 10% | 6.85% |  |  |  |
| C=CC(=O)N1CCCN(Cc2ccccc2)CC1 |  | 1 | 1 | 0.947% | 9.99% | 0% |  |  |
